For experiment [1], the system named is human coronavirus (HCoV) 229E. Put plainly: microbe, parasite or virus in culture. Type of experiment: cell-based, human coronavirus 229E. As to conditions: MRCS cells, HCoV 229E, 3 days, CellTiter Glo, read-out: 229E CPE EC50. On the technique in general: In ATP-based viability assays light output follows the ATP content of the culture.
The test system of another experiment is SARS-CoV-2 replicon. The experiment can be described thus: microbe, parasite or virus in culture. As to conditions: read-out: Replicon EC50. Type of experiment: cell-based. On the technique in general: Replicon systems follow genome replication, usually without infectious particles.
Setting [2] is: unidentified human coronavirus, 72 h.
Where [3] appears, read: Severe acute respiratory syndrome coronavirus 2, Huh-7, 24 h.

The structures appear in SMILES notation. Values joined by “and” are separate entries in the source; they are usually repeats but may differ in a detail not shown here. Equal entries are not always repeated. Where two headings read alike, the source gives them in different places.

From US11760722B2 (priority 2022, dated 2023) come the findings set out here.

Take `CC(C)(C)[C@H](NS(=O)(=O)C[C@@]12CC[C@@H](CC1=O)C2(C)C)C(=O)N1C[C@H]2[C@@H]([C@H]1C(=O)N[C@H](C#N)C[C@@H]1CCNC1=O)C2(C)C` [Compound 86]: the EC50 (commonly the concentration that produces a half-maximal response) worked out at 9630 nM in experiment [1] (setting [2]) and 4020 nM with SARS-CoV-2 replicon (setting [3]).

Turning to `CC(C)(C)NC(=O)N[C@H](C(=O)N1C[C@H]2[C@@H]([C@H]1C(=O)N[C@H](C#N)C[C@@H]1CCNC1=O)C2(C)C)C(C)(C)C` [Compound 87], the EC50 in experiment [1] was 14000 nM; in experiment [1] (setting [2]) it was 9070 nM; with SARS-CoV-2 replicon (setting [3]), 450 nM; in the experiment on SARS-CoV-2 replicon it was 800 nM.

On to `CC(C#N)C(=O)N[C@H](C(=O)N1C[C@H]2[C@@H]([C@H]1C(=O)N[C@H](C#N)C[C@@H]1CCNC1=O)C2(C)C)C(C)(C)C` (stereo partly drawn) [Compound 88], for which the 50% effective concentration (EC50) in experiment [1] amounted to 4560 nM; in experiment [1] (setting [2]), 2500 nM; with SARS-CoV-2 replicon (setting [3]), 190 nM; with SARS-CoV-2 replicon, 250 nM.

Consider `CC(C)(C)[C@H](NS(=O)(=O)c1ccc(OC(F)(F)F)cc1)C(=O)N1C[C@H]2[C@@H]([C@H]1C(=O)N[C@H](C#N)C[C@@H]1CCNC1=O)C2(C)C` [Compound 89], for which the EC50 was found to be 468 nM in experiment [1], 322 nM in experiment [1] (setting [2]), 140 nM in the experiment with SARS-CoV-2 replicon (setting [3]) and 160 nM in the experiment with SARS-CoV-2 replicon.

Consider `CC(C)(C)[C@H](NS(=O)(=O)c1ccc(C(F)(F)F)cc1)C(=O)N1C[C@H]2[C@@H]([C@H]1C(=O)N[C@H](C#N)C[C@@H]1CCNC1=O)C2(C)C` [Compound 90], for which the EC50 in experiment [1] was 387 nM; in experiment [1] (setting [2]), 254 nM; in the experiment with SARS-CoV-2 replicon, 67 nM and 76 nM.

Turning to `CC1(C)[C@@H]2[C@@H](C(=O)N[C@H](C#N)C[C@@H]3CCNC3=O)N(C(=O)[C@@H](NC(=O)C(F)(F)F)C34CC(C(F)(F)F)(C3)C4)C[C@@H]21` [Compound 91], the figures for the concentration giving a half-maximal response (EC50) (in experiment [1] (setting [2]); in the experiment on SARS-CoV-2 replicon (setting [3])) were 10900 nM and 330 nM, respectively.

Take `C=C(C(=O)N[C@H](C(=O)N1C[C@H]2[C@@H]([C@H]1C(=O)N[C@H](C#N)C[C@@H]1CCNC1=O)C2(C)C)C(C)(C)C)C(F)(F)F` [Compound 92]: the results for the EC50 (in experiment [1] (setting [2]); in the experiment on SARS-CoV-2 replicon (setting [3])) were 17100 nM and 1760 nM, respectively.

In the case of `CC(C)(C)[C@H](NC(=O)c1ccc(F)cc1)C(=O)N1C[C@H]2[C@@H]([C@H]1C(=O)N[C@H](C#N)C[C@@H]1CCNC1=O)C2(C)C` [Compound 94], the results for the EC50 (in experiment [1] (setting [2]); in the experiment on SARS-CoV-2 replicon (setting [3])) were 4290 nM and 960 nM, respectively.

Turning to `CC(C)(C)[C@H](NS(=O)(=O)c1ccccc1)C(=O)N1C[C@H]2[C@@H]([C@H]1C(=O)N[C@H](C#N)C[C@@H]1CCNC1=O)C2(C)C` [Compound 95], the EC50 amounted to 521 nM in experiment [1], 358 nM in experiment [1] (setting [2]), 37 nM in the experiment with SARS-CoV-2 replicon (setting [3]) and 68 nM with SARS-CoV-2 replicon.

As to `COC(=O)NS(=O)(=O)N[C@H](C(=O)N1C[C@H]2[C@@H]([C@H]1C(=O)N[C@H](C#N)C[C@@H]1CCNC1=O)C2(C)C)C(C)(C)C` [Compound 97], the EC50 in experiment [1] (setting [2]) is greater than 30000 nM; with SARS-CoV-2 replicon (setting [3]) it was greater than 10000 nM.

Regarding `CC(C)(C)[C@H](NS(=O)(=O)C[C@]12CC[C@H](CC1=O)C2(C)C)C(=O)N1C[C@H]2[C@@H]([C@H]1C(=O)N[C@H](C#N)C[C@@H]1CCNC1=O)C2(C)C` [Compound 98], the EC50 in experiment [1] (setting [2]) is 3310 nM; with SARS-CoV-2 replicon (setting [3]), 3650 nM.

For the molecule `CC(C)(C)[C@H](NS(=O)(=O)c1ccc(F)c(F)c1)C(=O)N1C[C@H]2[C@@H]([C@H]1C(=O)N[C@H](C#N)C[C@@H]1CCNC1=O)C2(C)C` [Compound 99], the EC50 came to 344 nM in experiment [1], 271 nM in experiment [1] (setting [2]), 88 nM with SARS-CoV-2 replicon (setting [3]) and 100 nM with SARS-CoV-2 replicon.

Turning to `COc1ccc(S(=O)(=O)N[C@H](C(=O)N2C[C@H]3[C@@H]([C@H]2C(=O)N[C@H](C#N)C[C@@H]2CCNC2=O)C3(C)C)C(C)(C)C)cc1` [Compound 101], the EC50 in experiment [1] stood at 910 nM; in experiment [1] (setting [2]), 514 nM; in the experiment on SARS-CoV-2 replicon (setting [3]) it was 24 nM; in the experiment on SARS-CoV-2 replicon, 41 nM.

With `CC(C)(C)[C@H](NC(=O)C(F)(F)F)C(=O)N1C[C@H]2[C@@H]([C@H]1C(=O)N[C@H](/C=C/C#N)C[C@@H]1CCNC1=O)C2(C)C` [Compound 103], the concentration for a half-maximal effect (EC50) in experiment [1] (setting [2]) stood at 16900 nM; with SARS-CoV-2 replicon (setting [3]), 650 nM.

With `CN(C)C(C)(C)C(=O)N[C@H](C(=O)N1C[C@H]2[C@@H]([C@H]1C(=O)N[C@H](C#N)C[C@@H]1CCNC1=O)C2(C)C)C(C)(C)C` [Compound 104], the 50% effective concentration (EC50) is 12700 nM in experiment [1] (setting [2]) and greater than 10000 nM with SARS-CoV-2 replicon (setting [3]).

In the case of `CC1(C)[C@@H]2[C@@H](C(=O)N[C@H](C#N)C[C@@H]3CCNC3=O)N(C(=O)[C@@H](NC(=O)C(F)(F)F)c3ccc(F)cc3)C[C@@H]21` [Compound 105], the half-maximal effective concentration (EC50) in experiment [1] (setting [2]) was 6180 nM; in the experiment on SARS-CoV-2 replicon (setting [3]), 650 nM.

For the molecule `CC(C)(C)[C@H](NC(=O)c1ccc2ccccc2c1)C(=O)N1C[C@H]2[C@@H]([C@H]1C(=O)N[C@H](C#N)C[C@@H]1CCNC1=O)C2(C)C` [Compound 106], the EC50 was 4020 nM in experiment [1] (setting [2]) and 860 nM in the experiment on SARS-CoV-2 replicon (setting [3]).

Consider `CC(C)(C)[C@H](NC(=O)c1ccccn1)C(=O)N1C[C@H]2[C@@H]([C@H]1C(=O)N[C@H](C#N)C[C@@H]1CCNC1=O)C2(C)C` [Compound 107], for which the half-maximal effective concentration (EC50) in experiment [1] (setting [2]) worked out at 23300 nM; in the experiment on SARS-CoV-2 replicon (setting [3]) it was 3770 nM.

As for `CC(C)(C)[C@H](NC(=O)c1ccc(F)c(F)c1)C(=O)N1C[C@H]2[C@@H]([C@H]1C(=O)N[C@H](C#N)C[C@@H]1CCNC1=O)C2(C)C` [Compound 108], the results for the concentration for a half-maximal effect (EC50) (in experiment [1] (setting [2]); in the experiment with SARS-CoV-2 replicon (setting [3])) were 3900 nM and 330 nM, respectively.

`CC(C)(C)[C@H](NC(=S)N1CCCCC1)C(=O)N1C[C@H]2[C@@H]([C@H]1C(=O)N[C@H](C#N)C[C@@H]1CCNC1=O)C2(C)C` [Compound 109]: the concentration for a half-maximal effect (EC50) came to 985 nM in experiment [1] (setting [2]) and 875 nM in the experiment on SARS-CoV-2 replicon (setting [3]).

With `CC(C)[C@H]1CC[C@H](C)C[C@@H]1OCC(=O)N[C@H](C(=O)N1C[C@H]2[C@@H]([C@H]1C(=O)N[C@H](C#N)C[C@@H]1CCNC1=O)C2(C)C)C(C)(C)C` [Compound 110], the EC50 in experiment [1] (setting [2]) worked out at 23500 nM; with SARS-CoV-2 replicon (setting [3]), 1360 nM.

Consider `CC(C)(C)[C@H](NS(=O)(=O)c1cc2ccccc2s1)C(=O)N1C[C@H]2[C@@H]([C@H]1C(=O)N[C@H](C#N)C[C@@H]1CCNC1=O)C2(C)C` [Compound 111], for which the concentration for a half-maximal effect (EC50) in experiment [1] (setting [2]) worked out at 130 nM; in the experiment with SARS-CoV-2 replicon (setting [3]) it was 3.4 nM; in the experiment with SARS-CoV-2 replicon it was 4.6 nM.

`CC(C)(C)[C@H](NC(=O)C1(CS(=O)(=O)C(C)(C)C)CCCCC1)C(=O)N1C[C@H]2[C@@H]([C@H]1C(=O)N[C@H](C#N)C[C@@H]1CCNC1=O)C2(C)C` [Compound 115]: the EC50 in experiment [1] (setting [2]) is greater than 30000 nM; in the experiment with SARS-CoV-2 replicon (setting [3]), 3000 nM.

Turning to `CN(C)[C@@H]1C[C@@H](C(=O)N[C@H](C#N)C[C@@H]2CCNC2=O)N(C(=O)[C@@H](NC(=O)C(F)(F)F)C(C)(C)C)C1` [Compound 116], the results for the EC50 (in experiment [1] (setting [2]); in the experiment on SARS-CoV-2 replicon (setting [3])) were greater than 30000 nM and 740 nM, respectively.

`CC(C)(C)[C@H](NC(=O)c1cccc2ccccc12)C(=O)N1C[C@H]2[C@@H]([C@H]1C(=O)N[C@H](C#N)C[C@@H]1CCNC1=O)C2(C)C` [Compound 119]: the values for the EC50 (in experiment [1] (setting [2]); in the experiment with SARS-CoV-2 replicon (setting [3])) were 546 nM and 340 nM, respectively.

As to `CC(C)(C)[C@H](NC(=O)c1ccc2c(c1)CCC2)C(=O)N1C[C@H]2[C@@H]([C@H]1C(=O)N[C@H](C#N)C[C@@H]1CCNC1=O)C2(C)C` [Compound 120], the concentration for a half-maximal effect (EC50) in experiment [1] (setting [2]) amounted to 4720 nM; in the experiment with SARS-CoV-2 replicon (setting [3]) it was 2240 nM.
